Laboratory results: ChEMBL document CHEMBL4184123, “Discovery of novel 2-substituted-4-phenoxypyridine derivatives as potential antitumor agents” (Bioorg Med Chem Lett, 2018)

Columns and labels:
[1] = test system: A549; experiment: cells; settings: Homo sapiens, A549, 72 h
Description: Antiproliferative activity against human A549 cells after 72 hrs by MTT assay

[2] = test system: HT-29; experiment: cells; settings: Homo sapiens, HT-29, 72 h
[3] = test system: NCI-H460; experiment: Antiproliferative activity against human H460 cells after 72 hrs by MTT assay; assay type: functional, cell-based; settings: NCI-H460, 72 h
[4] = test system: U-87 MG; experiment: Antiproliferative activity against human U87MG cells after 72 hrs by MTT assay; assay type: functional, cell-based, U-87MG ATCC
[5] = biological target: Mast/stem cell growth factor receptor Kit (Homo sapiens, UniProt P10721); experiment: Inhibition of c-KIT (unknown origin) using poly (Glu, Tyr) 4:1 as substrate after 30 mins in presence of ATP by HTRF assay
Sequence of Mast/stem cell growth factor receptor Kit (P10721 whole entry): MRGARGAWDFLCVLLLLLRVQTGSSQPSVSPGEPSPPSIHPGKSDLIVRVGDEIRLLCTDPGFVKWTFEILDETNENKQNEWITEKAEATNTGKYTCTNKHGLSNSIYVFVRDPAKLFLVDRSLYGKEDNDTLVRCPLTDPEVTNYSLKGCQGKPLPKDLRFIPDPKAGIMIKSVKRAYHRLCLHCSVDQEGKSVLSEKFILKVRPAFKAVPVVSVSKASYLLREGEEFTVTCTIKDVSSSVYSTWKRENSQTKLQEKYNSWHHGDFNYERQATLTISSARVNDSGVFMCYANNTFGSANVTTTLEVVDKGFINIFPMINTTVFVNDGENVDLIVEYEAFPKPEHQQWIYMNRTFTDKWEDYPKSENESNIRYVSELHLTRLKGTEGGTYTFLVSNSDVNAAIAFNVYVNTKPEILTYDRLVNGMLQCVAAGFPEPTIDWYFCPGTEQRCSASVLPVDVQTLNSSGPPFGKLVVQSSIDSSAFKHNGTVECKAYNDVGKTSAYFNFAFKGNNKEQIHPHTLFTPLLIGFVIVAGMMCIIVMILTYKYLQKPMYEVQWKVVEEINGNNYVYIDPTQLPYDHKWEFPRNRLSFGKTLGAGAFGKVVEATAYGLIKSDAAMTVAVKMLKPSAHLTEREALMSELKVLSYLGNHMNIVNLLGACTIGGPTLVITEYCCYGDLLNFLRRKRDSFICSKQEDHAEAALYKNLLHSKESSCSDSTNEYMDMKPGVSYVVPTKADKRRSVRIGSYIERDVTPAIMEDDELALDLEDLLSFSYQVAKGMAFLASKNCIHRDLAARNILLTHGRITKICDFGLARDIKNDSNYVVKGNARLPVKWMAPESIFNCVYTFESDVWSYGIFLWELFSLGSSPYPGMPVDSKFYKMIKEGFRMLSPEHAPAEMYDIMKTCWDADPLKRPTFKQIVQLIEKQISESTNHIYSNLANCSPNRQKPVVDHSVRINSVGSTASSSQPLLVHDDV

[6] = biological target: Platelet-derived growth factor receptor beta (Homo sapiens, UniProt P09619); experiment: Inhibition of PDGFRbeta (unknown origin) using poly (Glu, Tyr) 4:1 as substrate after 30 mins in presence of ATP by HTRF assay
Sequence of Platelet-derived growth factor receptor beta (P09619 whole entry): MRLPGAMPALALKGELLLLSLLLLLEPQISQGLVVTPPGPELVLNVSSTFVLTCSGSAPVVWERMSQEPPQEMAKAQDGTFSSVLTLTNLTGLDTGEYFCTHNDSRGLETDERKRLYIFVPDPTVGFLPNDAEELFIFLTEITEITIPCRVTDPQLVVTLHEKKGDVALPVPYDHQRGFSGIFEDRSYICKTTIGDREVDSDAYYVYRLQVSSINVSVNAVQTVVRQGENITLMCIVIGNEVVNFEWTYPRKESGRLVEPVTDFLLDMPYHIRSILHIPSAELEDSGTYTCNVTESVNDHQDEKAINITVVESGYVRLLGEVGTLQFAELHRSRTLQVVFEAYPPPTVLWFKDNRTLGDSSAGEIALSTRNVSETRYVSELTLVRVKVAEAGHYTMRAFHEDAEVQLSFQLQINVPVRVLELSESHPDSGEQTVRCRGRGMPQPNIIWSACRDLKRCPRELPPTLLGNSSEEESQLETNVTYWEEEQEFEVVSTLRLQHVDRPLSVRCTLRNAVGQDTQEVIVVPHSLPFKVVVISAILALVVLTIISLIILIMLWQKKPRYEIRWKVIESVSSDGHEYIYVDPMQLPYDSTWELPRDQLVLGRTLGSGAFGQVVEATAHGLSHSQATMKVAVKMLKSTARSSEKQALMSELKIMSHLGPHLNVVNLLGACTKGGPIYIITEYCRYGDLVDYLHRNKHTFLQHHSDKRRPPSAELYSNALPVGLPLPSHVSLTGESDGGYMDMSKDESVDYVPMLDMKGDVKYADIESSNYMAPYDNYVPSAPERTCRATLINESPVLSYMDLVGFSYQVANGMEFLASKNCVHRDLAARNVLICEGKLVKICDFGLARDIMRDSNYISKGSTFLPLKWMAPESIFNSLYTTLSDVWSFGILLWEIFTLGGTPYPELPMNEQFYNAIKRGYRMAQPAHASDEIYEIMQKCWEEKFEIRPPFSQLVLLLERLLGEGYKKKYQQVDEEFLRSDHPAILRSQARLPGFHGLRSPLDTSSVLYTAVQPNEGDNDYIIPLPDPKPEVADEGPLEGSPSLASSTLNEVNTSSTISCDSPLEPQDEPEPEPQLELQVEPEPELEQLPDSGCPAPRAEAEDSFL

[7] = biological target: Hepatocyte growth factor receptor (Homo sapiens, UniProt P08581); experiment: Inhibition of c-MET (unknown origin) using poly (Glu, Tyr) 4:1 as substrate after 30 mins in presence of ATP by HTRF assay
[8] = biological target: Vascular endothelial growth factor receptor 3 (Homo sapiens, UniProt P35916); experiment: Inhibition of VEGFR3 (unknown origin) using poly (Glu, Tyr) 4:1 as substrate after 30 mins in presence of ATP by HTRF assay
Sequence of Vascular endothelial growth factor receptor 3 (P35916 whole entry): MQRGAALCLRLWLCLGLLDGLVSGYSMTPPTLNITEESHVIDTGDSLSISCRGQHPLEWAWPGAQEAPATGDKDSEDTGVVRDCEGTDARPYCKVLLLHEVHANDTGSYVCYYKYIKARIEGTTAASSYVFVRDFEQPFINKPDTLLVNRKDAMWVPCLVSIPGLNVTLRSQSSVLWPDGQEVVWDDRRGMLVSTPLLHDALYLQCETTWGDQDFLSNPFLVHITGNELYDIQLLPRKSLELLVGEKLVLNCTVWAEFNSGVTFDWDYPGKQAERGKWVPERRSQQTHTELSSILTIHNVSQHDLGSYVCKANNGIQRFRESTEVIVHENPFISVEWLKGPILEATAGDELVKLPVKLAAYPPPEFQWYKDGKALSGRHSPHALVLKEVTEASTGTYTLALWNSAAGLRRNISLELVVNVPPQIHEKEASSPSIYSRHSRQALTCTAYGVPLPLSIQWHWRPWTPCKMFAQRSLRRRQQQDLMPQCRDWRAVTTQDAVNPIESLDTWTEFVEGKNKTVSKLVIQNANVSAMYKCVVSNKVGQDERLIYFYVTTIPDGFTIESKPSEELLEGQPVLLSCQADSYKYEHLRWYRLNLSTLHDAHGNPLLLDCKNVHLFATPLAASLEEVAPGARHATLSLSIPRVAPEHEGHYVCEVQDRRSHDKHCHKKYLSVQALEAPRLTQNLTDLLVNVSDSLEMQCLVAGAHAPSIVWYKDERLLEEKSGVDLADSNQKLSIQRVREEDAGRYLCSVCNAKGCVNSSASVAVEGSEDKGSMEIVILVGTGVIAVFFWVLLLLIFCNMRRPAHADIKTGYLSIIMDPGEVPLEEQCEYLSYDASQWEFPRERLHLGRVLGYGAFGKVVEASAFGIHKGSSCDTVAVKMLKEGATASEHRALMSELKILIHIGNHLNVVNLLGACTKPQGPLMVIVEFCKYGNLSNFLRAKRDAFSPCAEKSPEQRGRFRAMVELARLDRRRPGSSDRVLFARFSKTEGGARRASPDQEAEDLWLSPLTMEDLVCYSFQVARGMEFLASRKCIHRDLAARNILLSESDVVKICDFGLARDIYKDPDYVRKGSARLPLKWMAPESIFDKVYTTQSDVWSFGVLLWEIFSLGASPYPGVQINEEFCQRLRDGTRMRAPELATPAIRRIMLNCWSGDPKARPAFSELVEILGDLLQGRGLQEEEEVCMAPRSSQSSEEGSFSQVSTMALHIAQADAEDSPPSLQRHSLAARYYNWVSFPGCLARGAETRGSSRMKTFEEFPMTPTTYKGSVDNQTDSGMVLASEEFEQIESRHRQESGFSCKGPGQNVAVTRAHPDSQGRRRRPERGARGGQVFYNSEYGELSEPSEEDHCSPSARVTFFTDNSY

[9] = biological target: T1, Receptor-type tyrosine-protein kinase FLT3 (Homo sapiens, UniProt P36888); experiment: Inhibition of FLT3 (unknown origin) using poly (Glu, Tyr) 4:1 as substrate after 30 mins in presence of ATP by HTRF assay
T1 sequence (P36888 whole entry): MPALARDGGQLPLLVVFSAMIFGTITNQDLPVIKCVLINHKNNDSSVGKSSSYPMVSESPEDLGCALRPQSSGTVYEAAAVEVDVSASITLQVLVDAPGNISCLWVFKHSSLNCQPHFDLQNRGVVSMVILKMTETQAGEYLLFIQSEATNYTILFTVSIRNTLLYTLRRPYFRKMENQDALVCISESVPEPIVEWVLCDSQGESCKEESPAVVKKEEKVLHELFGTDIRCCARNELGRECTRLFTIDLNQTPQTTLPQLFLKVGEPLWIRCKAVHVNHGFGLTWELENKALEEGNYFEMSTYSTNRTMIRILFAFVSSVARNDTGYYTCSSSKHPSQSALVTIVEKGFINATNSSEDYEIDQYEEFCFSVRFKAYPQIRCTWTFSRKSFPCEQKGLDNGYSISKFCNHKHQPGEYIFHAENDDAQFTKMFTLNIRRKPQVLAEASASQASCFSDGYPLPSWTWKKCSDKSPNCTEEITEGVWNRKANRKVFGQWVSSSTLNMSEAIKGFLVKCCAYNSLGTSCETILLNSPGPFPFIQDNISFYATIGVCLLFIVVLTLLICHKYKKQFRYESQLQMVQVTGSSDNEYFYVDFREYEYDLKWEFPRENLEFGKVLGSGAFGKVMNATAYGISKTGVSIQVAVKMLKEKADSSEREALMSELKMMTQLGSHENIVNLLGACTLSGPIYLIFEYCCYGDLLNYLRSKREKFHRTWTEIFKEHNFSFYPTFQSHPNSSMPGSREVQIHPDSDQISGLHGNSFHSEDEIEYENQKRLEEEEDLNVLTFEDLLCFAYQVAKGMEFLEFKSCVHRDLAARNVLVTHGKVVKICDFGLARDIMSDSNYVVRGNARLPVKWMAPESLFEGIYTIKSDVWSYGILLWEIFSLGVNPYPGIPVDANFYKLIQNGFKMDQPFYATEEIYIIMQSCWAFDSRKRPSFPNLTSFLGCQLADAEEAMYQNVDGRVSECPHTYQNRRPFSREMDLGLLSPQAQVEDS

[10] = biological target: Platelet-derived growth factor receptor alpha (Homo sapiens, UniProt P16234); experiment: Inhibition of PDGFRalpha (unknown origin) using poly (Glu, Tyr) 4:1 as substrate after 30 mins in presence of ATP by HTRF assay
[11] = biological target: Epidermal growth factor receptor (Homo sapiens, UniProt P00533); experiment: Inhibition of EGFR (unknown origin) using poly (Glu, Tyr) 4:1 as substrate after 30 mins in presence of ATP by HTRF assay
[12] = biological target: ALK tyrosine kinase receptor (Homo sapiens, UniProt Q9UM73); experiment: Inhibition of ALK (unknown origin) using poly (Glu, Tyr) 4:1 as substrate after 30 mins in presence of ATP by HTRF assay
[13] = biological target: Vascular endothelial growth factor receptor 2 (Homo sapiens, UniProt P35968); experiment: Inhibition of VEGFR2 (unknown origin) using poly (Glu, Tyr) 4:1 as substrate after 30 mins in presence of ATP by HTRF assay
Sequence of Vascular endothelial growth factor receptor 2 (P35968 whole entry): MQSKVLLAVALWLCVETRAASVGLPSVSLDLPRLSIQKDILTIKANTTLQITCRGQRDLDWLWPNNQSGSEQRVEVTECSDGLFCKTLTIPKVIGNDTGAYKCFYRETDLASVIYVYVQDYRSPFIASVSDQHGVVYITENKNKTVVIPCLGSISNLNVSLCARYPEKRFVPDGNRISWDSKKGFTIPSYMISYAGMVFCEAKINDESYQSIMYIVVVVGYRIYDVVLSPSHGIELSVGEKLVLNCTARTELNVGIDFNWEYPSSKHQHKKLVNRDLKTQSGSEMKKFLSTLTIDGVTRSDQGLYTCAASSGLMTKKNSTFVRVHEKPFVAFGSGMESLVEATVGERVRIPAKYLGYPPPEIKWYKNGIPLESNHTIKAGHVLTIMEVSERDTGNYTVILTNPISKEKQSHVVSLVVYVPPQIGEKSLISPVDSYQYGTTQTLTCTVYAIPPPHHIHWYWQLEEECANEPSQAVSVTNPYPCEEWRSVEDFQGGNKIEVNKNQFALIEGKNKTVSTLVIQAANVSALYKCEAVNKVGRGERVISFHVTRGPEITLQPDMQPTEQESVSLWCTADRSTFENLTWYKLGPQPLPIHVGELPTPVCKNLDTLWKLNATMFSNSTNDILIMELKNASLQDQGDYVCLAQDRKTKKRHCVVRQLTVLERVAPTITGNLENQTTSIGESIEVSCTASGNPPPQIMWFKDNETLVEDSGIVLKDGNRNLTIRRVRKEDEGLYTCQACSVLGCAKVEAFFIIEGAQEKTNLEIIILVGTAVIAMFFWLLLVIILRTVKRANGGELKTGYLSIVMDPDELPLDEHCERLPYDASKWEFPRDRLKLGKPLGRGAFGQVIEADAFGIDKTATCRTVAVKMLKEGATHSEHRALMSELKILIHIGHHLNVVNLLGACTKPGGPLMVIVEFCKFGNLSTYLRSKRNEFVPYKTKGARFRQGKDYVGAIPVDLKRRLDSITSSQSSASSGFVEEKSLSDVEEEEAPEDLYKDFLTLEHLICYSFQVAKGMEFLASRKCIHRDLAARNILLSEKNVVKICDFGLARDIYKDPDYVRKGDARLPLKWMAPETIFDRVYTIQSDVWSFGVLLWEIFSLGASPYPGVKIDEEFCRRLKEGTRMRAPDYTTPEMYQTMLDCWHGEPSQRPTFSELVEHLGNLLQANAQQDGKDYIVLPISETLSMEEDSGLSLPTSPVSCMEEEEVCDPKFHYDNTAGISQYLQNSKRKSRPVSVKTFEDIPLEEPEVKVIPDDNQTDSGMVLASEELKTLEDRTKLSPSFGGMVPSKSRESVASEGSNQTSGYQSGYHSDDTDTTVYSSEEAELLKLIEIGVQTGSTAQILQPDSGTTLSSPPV

## CCNC(=O)c1cc(Oc2ccc(NC(=O)c3cc4cccnc4n(-c4ccc(Cl)cc4)c3=O)cc2)ccn1
[1]
  IC50: 250 nM
[2]
  IC50: 330 nM

## CNC(=O)c1cc(Oc2ccc(NC(=O)c3cc4cccnc4n(-c4ccc(F)c(Cl)c4)c3=O)cc2)ccn1
[1]
  IC50: 1560 nM
[2]
  IC50: 1810 nM

## CNC(=O)c1cc(Oc2ccc(NC(=O)c3cc4cccnc4n(-c4ccccc4F)c3=O)cc2)ccn1
[3]
  IC50: 590 nM
[1]
  IC50: 610 nM
[4]
  IC50: 3360 nM
[2]
  IC50: 260 nM

## CNC(=O)c1cc(Oc2ccc(NC(=O)c3cc4cccnc4n(-c4ccc(OC)cc4)c3=O)cc2)ccn1
[1]
  IC50: 3110 nM
[2]
  IC50: 920 nM

## CCCNC(=O)c1cc(Oc2ccc(NC(=O)c3cc4cccnc4n(-c4ccc(F)cc4)c3=O)cc2)ccn1
[5]
  IC50: 529 nM
[3]
  IC50: 120 nM
[6]
  IC50: 482 nM
[7]
  IC50: 2.61 nM
[8]
  IC50: 23.6 nM
[9]
  IC50: 2.18 nM
[1]
  IC50: 62 nM
[10]
  IC50: 691 nM
[11]
  IC50: > 100000 nM
[4]
  IC50: 960 nM
[12]
  IC50: 186 nM
[13]
  IC50: 291 nM
[2]
  IC50: 84 nM

## CNC(=O)c1cc(Oc2ccc(NC(=O)c3cc4cccnc4n(-c4ccc(C(F)(F)F)cc4Cl)c3=O)cc2)ccn1
[3]
  IC50: 2110 nM
[1]
  IC50: 2090 nM
[4]
  IC50: 19800 nM
[2]
  IC50: 3190 nM

## CCCNC(=O)c1cc(Oc2ccc(NC(=O)c3cc4cccnc4n(-c4ccc(OC)cc4)c3=O)cc2)ccn1
[3]
  IC50: 1730 nM
[1]
  IC50: 820 nM
[4]
  IC50: 8210 nM
[2]
  IC50: 1560 nM

## CNC(=O)c1cc(Oc2ccc(NC(=O)c3cc4cccnc4n(-c4ccc(F)cc4)c3=O)cc2)ccn1
[3]
  IC50: 210 nM
[1]
  IC50: 110 nM
[4]
  IC50: 2910 nM
[2]
  IC50: 160 nM

## CCCNC(=O)c1cc(Oc2ccc(NC(=O)c3cc4cccnc4n(-c4ccc(F)c(Cl)c4)c3=O)cc2)ccn1
[3]
  IC50: 1600 nM
[1]
  IC50: 590 nM
[4]
  IC50: 3590 nM
[2]
  IC50: 920 nM

## CCCNC(=O)c1cc(Oc2ccc(NC(=O)c3cc4cccnc4n(-c4ccccc4)c3=O)cc2)ccn1
[3]
  IC50: 110 nM
[1]
  IC50: 95 nM
[4]
  IC50: 1510 nM
[2]
  IC50: 98 nM

## CCNC(=O)c1cc(Oc2ccc(NC(=O)c3cc4cccnc4n(-c4ccc(C(F)(F)F)cc4Cl)c3=O)cc2)ccn1
[1]
  IC50: 3290 nM
[2]
  IC50: 4770 nM

## CNC(=O)c1cc(Oc2ccc(NC(=O)c3cc4cccnc4n(-c4ccc(Br)cc4)c3=O)cc2)ccn1
[3]
  IC50: 3710 nM
[1]
  IC50: 1050 nM
[4]
  IC50: 15000 nM
[2]
  IC50: 1180 nM

## CCCNC(=O)c1cc(Oc2ccc(NC(=O)c3cc4cccnc4n(-c4ccc(Br)cc4)c3=O)cc2)ccn1
[3]
  IC50: 620 nM
[1]
  IC50: 150 nM
[4]
  IC50: 5190 nM
[2]
  IC50: 530 nM

## CNC(=O)c1cc(Oc2ccc(NC(=O)c3cc4cccnc4n(-c4ccc(Br)cc4F)c3=O)cc2)ccn1
[1]
  IC50: 1420 nM
[2]
  IC50: 1950 nM

## CNC(=O)c1cc(Oc2ccc(NC(=O)c3cc4cccnc4n(-c4ccccc4)c3=O)cc2)ccn1
[3]
  IC50: 320 nM
[1]
  IC50: 200 nM
[4]
  IC50: 1820 nM
[2]
  IC50: 250 nM

## CCNC(=O)c1cc(Oc2ccc(NC(=O)c3cc4cccnc4n(-c4ccccc4F)c3=O)cc2)ccn1
[3]
  IC50: 1230 nM
[1]
  IC50: 490 nM
[4]
  IC50: 3250 nM
[2]
  IC50: 260 nM

## CCNC(=O)c1cc(Oc2ccc(NC(=O)c3cc4cccnc4n(-c4ccc(Br)cc4)c3=O)cc2)ccn1
[1]
  IC50: 910 nM
[2]
  IC50: 1160 nM

## CCNC(=O)c1cc(Oc2ccc(NC(=O)c3cc4cccnc4n(-c4ccc(F)c(Cl)c4)c3=O)cc2)ccn1
[1]
  IC50: 1920 nM
[2]
  IC50: 2600 nM

## CNC(=O)c1cc(Oc2ccc(NC(=O)c3cc4cccnc4n(-c4ccc(Cl)cc4)c3=O)cc2)ccn1
[1]
  IC50: 370 nM
[2]
  IC50: 390 nM

## CCNC(=O)c1cc(Oc2ccc(NC(=O)c3cc4cccnc4n(-c4ccccc4)c3=O)cc2)ccn1
[3]
  IC50: 1120 nM
[1]
  IC50: 160 nM
[4]
  IC50: 2650 nM
[2]
  IC50: 220 nM

## CCCNC(=O)c1cc(Oc2ccc(NC(=O)c3cc4cccnc4n(-c4ccc(C(F)(F)F)cc4Cl)c3=O)cc2)ccn1
[3]
  IC50: 3170 nM
[1]
  IC50: 1250 nM
[4]
  IC50: 10900 nM
[2]
  IC50: 1960 nM

## CCCNC(=O)c1cc(Oc2ccc(NC(=O)c3cc4cccnc4n(-c4ccccc4F)c3=O)cc2)ccn1
[3]
  IC50: 390 nM
[1]
  IC50: 150 nM
[4]
  IC50: 2320 nM
[2]
  IC50: 200 nM

## CCNC(=O)c1cc(Oc2ccc(NC(=O)c3cc4cccnc4n(-c4ccc(F)cc4)c3=O)cc2)ccn1
[3]
  IC50: 220 nM
[1]
  IC50: 120 nM
[4]
  IC50: 1130 nM
[2]
  IC50: 190 nM

## CCNC(=O)c1cc(Oc2ccc(NC(=O)c3cc4cccnc4n(-c4ccc(OC)cc4)c3=O)cc2)ccn1
[3]
  IC50: 1720 nM
[1]
  IC50: 2010 nM
[4]
  IC50: 7210 nM
[2]
  IC50: 3350 nM

## CCCNC(=O)c1cc(Oc2ccc(NC(=O)c3cc4cccnc4n(-c4ccc(Cl)cc4)c3=O)cc2)ccn1
[1]
  IC50: 120 nM
[2]
  IC50: 390 nM

## CCNC(=O)c1cc(Oc2ccc(NC(=O)c3cc4cccnc4n(-c4ccc(Br)cc4F)c3=O)cc2)ccn1
[3]
  IC50: 1790 nM
[1]
  IC50: 1820 nM
[4]
  IC50: 10300 nM
[2]
  IC50: 2070 nM

## CCCNC(=O)c1cc(Oc2ccc(NC(=O)c3cc4cccnc4n(-c4ccc(Br)cc4F)c3=O)cc2)ccn1
[1]
  IC50: 1310 nM
[2]
  IC50: 2160 nM
